Test results: PubChem BioAssay (NCI)
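Method: 48-hour compound exposure of cells in 96-well plates, five concentrations, linear interpolation of endpoints. The concentration for 50% growth inhibition is given as GI50. TGI: total growth inhibition.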

Legend:
Experiment in all cases: NCI-60 cell line screen, 48 h
[1] = tested on: HOP-62 NSCLC
[2] = tested on: SF-539 CNS
[3] = tested on: EKVX NSCLC
[4] = tested on: KM12 colon
[5] = tested on: SK-MEL-28 melanoma
[6] = tested on: HT29 colon
[7] = tested on: OVCAR-3 ovarian
[8] = tested on: A549 NSCLC
[9] = tested on: NCI-H460 lung
[10] = tested on: CCRF-CEM leukemia

Structure (SMILES) | TGI [1] [µM] | TGI [2] [µM] | TGI [3] [µM] | TGI [4] [µM] | TGI [5] [µM] | TGI [6] [µM] | TGI [7] [µM] | TGI [8] [µM] | TGI [9] [µM] | TGI [10] [µM] | GI50 [1] [µM] | GI50 [2] [µM] | GI50 [4] [µM] | GI50 [5] [µM] | GI50 [6] [µM] | GI50 [10] [µM] | GI50 [7] [µM] | GI50 [8] [µM] | GI50 [9] [µM] | GI50 [3] [µM]
CN1CCN(CCSC2Cc3cc(Cl)ccc3Sc3ccccc32)CC1 (stereo not drawn) | 26.7 | 11.7 | 29.2 | 20.1 | 3.5 | 3.45 | 16.5 | 13.2 | 16.1 | – | – | – | – | – | – | – | – | – | – | –
NC(N)=N/N=C(/c1nc2ccc([N+](=O)[O-])cc2[nH]c1=O)C(O)c1ccco1 (stereo not drawn) | > 100 | > 100 | > 100 | > 100 | > 100 | > 100 | – | > 100 | > 100 | > 100 | – | – | – | – | – | – | – | – | – | –
CCCCCCNC(=O)C1=C(C)NC(C)=C(C(=O)NCCCCCC)C1 | > 100 | > 100 | > 100 | > 100 | > 100 | > 100 | > 100 | > 100 | > 100 | > 100 | – | – | – | – | – | – | – | – | – | –
Nc1ccc(C(=O)N/C(=C\C=C\c2ccco2)c2nc3[nH]c(=S)[nH]c(=O)c3[nH]2)cc1 | – | > 100 | > 100 | > 100 | > 100 | > 100 | > 100 | > 100 | – | > 100 | – | – | – | – | – | – | – | – | – | –
COc1cc(/C=C/c2cc(C(F)(F)F)[nH]c(=O)n2)ccc1OCc1ccccc1F | 25 | 13.8 | – | 26.2 | 24.7 | 43.6 | 17.4 | 40.3 | 39.3 | 26.3 | 10.3 | 3.68 | 11.8 | 9.27 | 21.5 | 3.94 | 4.72 | 6.97 | 4.44 | –
CC1=CSC2=NC(c3ccc(Cl)c(Cl)c3)=CC(c3ccc(Cl)cc3)N12 (stereo not drawn) | > 100 | > 100 | – | > 100 | > 100 | > 100 | > 100 | > 100 | > 100 | > 100 | > 100 | > 100 | > 100 | > 100 | > 100 | > 100 | > 100 | > 100 | > 100 | –
Cc1cc2c(CC(=O)O)[nH]nc2c(C(=O)O)c1C | > 100 | > 100 | > 100 | – | > 100 | > 100 | > 100 | > 100 | > 100 | > 100 | – | – | – | – | – | – | – | – | – | –
O=C(Oc1ccc(O)c2c(=O)n3c(cc12)[nH]c1ccccc13)c1ccccc1 | 54.5 | 36.6 | > 100 | > 100 | 76.4 | > 100 | – | 66.8 | > 100 | 20.7 | 22.4 | 6.63 | 34.7 | 24.9 | 33.5 | 3.71 | – | 24 | 81.7 | 24.3
Cc1cc2nc3c(C(OC4OC(CO)C(O)C(O)C4O)C(O)CO)nn(-c4ccccc4)c3nc2cc1C (stereo not drawn) | > 100 | > 100 | > 100 | > 100 | > 100 | > 100 | > 100 | – | > 100 | > 100 | – | – | – | – | – | – | – | – | – | –
CCN(CC)CCCCC1CCN(CC(=O)N2CC(C)C(=O)Nc3ccccc32)CC1 (stereo not drawn) | > 100 | – | – | – | > 100 | > 100 | > 100 | > 100 | > 100 | > 100 | – | – | – | – | – | – | – | – | – | –
S=C(Nc1ccc(-c2nc3ccccc3[nH]2)cc1)NC1CCCCC1 | > 100 | 48.5 | – | 63.6 | – | > 100 | 43.8 | – | – | – | 55.7 | 22.6 | 22.5 | 30.6 | 34.4 | 36.8 | – | 40.3 | – | 28.5
Cc1nc2ccc(C(F)(F)F)cc2nc1Nc1ccc(Cl)c(Cl)c1 | 30.5 | 27.5 | – | – | 24.7 | 18.6 | 26.9 | 21.6 | 10.5 | 26.7 | – | – | – | – | – | – | – | – | – | –
O=[N+]([O-])c1c(/C=N/Nc2ccccc2)oc(-c2ccc3c(c2)OCO3)c1-c1ccc2c(c1)OCO2 | > 100 | > 100 | > 100 | – | > 100 | > 100 | 98.2 | > 100 | – | – | – | – | – | – | – | – | – | – | – | –
COc1cc(-c2nc3ccc(C)cc3[nH]2)ccc1OCC(=O)N=Nc1c(O)[nH]c2ccccc12 | – | 3.01 | > 100 | 3.54 | 3.16 | – | 3.21 | – | 3.73 | – | – | 1.62 | 1.83 | 1.77 | – | – | 1.71 | – | 1.85 | 12.7
CC1(C)C(=O)N(c2ccccc2)C(=O)N1c1nc2ccccc2[nH]1 | > 100 | – | > 100 | > 100 | > 100 | > 100 | > 100 | > 100 | > 100 | > 100 | – | – | – | – | – | – | – | – | – | –
CC1(C)C=CC[C@]2(C)[C@H]3CC[C@@H]4[C@H]5[C@H](C(=O)/C=C/c6cccnc6)CC[C@]5(CO)CC[C@@]4(C)[C@]3(C)CC[C@@H]12 | 3.11 | 2.87 | – | 2.42 | 2.98 | 2.68 | 2.71 | 2.49 | 2.41 | 5.34 | 1.54 | 1.5 | 1.01 | 1.54 | 1.23 | 0.56 | 1.37 | 0.972 | 1.03 | –
CCCCC#COP(=O)(OCC)OCC | > 100 | > 100 | > 100 | > 100 | – | > 100 | > 100 | > 100 | > 100 | > 100 | – | – | – | – | – | – | – | – | – | –
COc1cc(OC2OC(C)C(O)C(O)C2O)cc2oc(-c3ccc(O)cc3)c(CC=C(C)C)c(=O)c12 (stereo not drawn) | 49.6 | 44.2 | 99.4 | 31 | 59.6 | – | 66.3 | 68.5 | 38.7 | 31.8 | 18.2 | 19.5 | 12.2 | 23.4 | – | 5.97 | 17.1 | 22.8 | 14.7 | 25.6
CCCC(=O)c1c(NOC2OC(COC(C)=O)C(OC(C)=O)C(OC(C)=O)C2OC(C)=O)nc(OC)n(C)c1=O (stereo not drawn) | > 100 | > 100 | > 100 | > 100 | > 100 | > 100 | – | > 100 | > 100 | > 100 | – | – | – | – | – | – | – | – | – | –
